Literature values as cited in patent US4761398A, “Method of inducing birds to molt” (Embrex, Inc., priority 1986, dated 1988).
Where no end group is shown, it is not given here.

Target: T1, LHRH receptor (Homo sapiens, UniProt P30968)
T1 sequence (P30968 1-328): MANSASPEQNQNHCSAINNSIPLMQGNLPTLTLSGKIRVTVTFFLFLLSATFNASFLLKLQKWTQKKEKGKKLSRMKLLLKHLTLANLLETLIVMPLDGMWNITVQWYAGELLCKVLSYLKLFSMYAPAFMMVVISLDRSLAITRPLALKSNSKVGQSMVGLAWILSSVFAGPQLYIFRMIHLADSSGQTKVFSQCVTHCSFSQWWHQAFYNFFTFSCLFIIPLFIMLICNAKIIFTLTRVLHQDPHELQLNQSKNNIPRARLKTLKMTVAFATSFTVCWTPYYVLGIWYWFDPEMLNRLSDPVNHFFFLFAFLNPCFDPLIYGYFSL
Settings: literature review; cited from earlier work

Substance | antagonistic activity | agonistic activity of antagonist analogs
Leu^3 -LHRH (QHLSYGLRPG; ends and bridges not checked; UniProt P01148 24-33, looked up, variant W3L) | some antagonistic activity | –
[desHis^2, D-Ala^6 ] LHRH | found to have antagonistic activity | –
[desHis^2, D-Ala^6, desGly^10 ] LHRHEA | found to have antagonistic activity | showed some agonistic activity
[desHis^2, D-Phe^6 ]LHRH | increased antagonistic activity | –
[desHis^2, Leu^3, D-Ala^6, desGly^10 ] LHRHEA | found to have antagonistic activity | showed some agonistic activity
[desHis^2, Leu^3, desGly^10 ] LHRHEA | found to have antagonistic activity | –
[desHis^2, desGly^10 ] LHRHEA | significant antagonistic activity | –

Target: T1, LHRH receptor
Settings: 6-substituted analogs, Nestor et al.; cited from earlier work

Substance | potency relative to LHRH
[D-Cha^6 ]LHRH | more potent than LHRH
[D-Dca^6 ]LHRH | more potent than LHRH
[D-Mtf^6 ]LHRH | more potent than LHRH
[D-Nal(1)^6 ]LHRH | more potent than LHRH
[D-Nal(2)^6 ]LHRH | more potent than LHRH
[D-Pfp^6 ]LHRH | more potent than LHRH
[D-Tmo^6 ]LHRH | more potent than LHRH
[D-Tmp^6 ]LHRH | more potent than LHRH
[D-Trp^6, Pro^9 -NHEt]LHRH | more potent than LHRH
[D-ptf^6 ]LHRH | more potent than LHRH

Same assay, conditions: Nestor et al.; cited from earlier work

Substance | agonistic activity in words
[D-Dca^6 ]LHRH | activity dropped off
[D-Nal(2)^6 ], aza-Gly^10 ]LHRH | one of the most potent LHRH agonists known
